{"source": "patent US12404262B2", "about": "(priority 2021, dated 2025)", "key": {"[1]": {"assay": "physchem", "conditions": "25 °C, thermodynamic from solid"}, "[2]": {"assay": "Oral bioavailability PK in dog", "assay_type": "in vivo", "conditions": "dog (Beagle), oral gavage, solution vehicle 5% ethanol, 20% propylene glycol, 75% water; based on exposure of Intermediate 5 in plasma", "description": "Oral dose (suspension and solution vehicle) of the compound being tested was administered via gavage in rat (Sprague Dawley) and dog (Beagle). Serial blood samples were collected via jugular vein into pre-chilled K2EDTA with 2 mM dichlorvos (final concentration) for up to 168h. Whole blood was processed into plasma by centrifuge (3000 rpm for 10 minutes at 5C) within 30 minutes of collection.\nPlasma samples were analyzed by direct protein precipitation with acetonitrile and further dilution with water before injecting onto Sciex API 5500 LC/MS/MS system for analysis.\nAUC was calculated as Area under the plasma concentration vs. time curve from 0 h to infinity.\nThe solution vehicles used were 1) 5% ethanol, 20% propylene glycol, and 75% water and 2) 30% 10 mM HCl, 5% ethanol, 45% polyethylene glycol 300, and 20% propylene glycol."}, "[3]": {"conditions": "0.1N HCl, 1.0% DMSO, 24-hour incubation at ambient temperature, maximum theoretical 100 μM, first value of the cell"}, "[4]": {"conditions": "1×PBS buffer (pH 7.4), 1.0% DMSO, 24-hour incubation at ambient temperature, maximum theoretical 100 μM, second value of the cell"}}, "note": "Read-outs that look alike come from different tables or passages of the source.", "data": [{"smiles": "C[C@@H](C(=O)O)N(CCOC(=O)N(c1nn(CC(F)(F)F)c2c(-c3ccc(C#CC(C)(C)S(C)(=O)=O)nc3[C@H](Cc3cc(F)cc(F)c3)NC(=O)Cn3nc(C(F)(F)F)c4c3C(F)(F)[C@@H]3C[C@H]43)ccc(Cl)c12)S(C)(=O)=O)C(=O)OCOP(=O)(O)O", "note": "[Compound 132, N-(2-(((4-chloro-7-(2-((S)-1-(2-((3bS,4aR)-5,5-difluoro-3-(trifluoromethyl)-3b,4,4a,5-tetrahydro-1H-cyclopropa[3,4]cyclopenta[1,2-c]pyrazol-1-yl)acetamido)-2-(3,5-difluorophenyl)ethyl)-6-(3-methyl-3-(methylsulfonyl)but-1-yn-1-yl)pyridin-3-yl)-1-(2,2,2-trifluoroethyl)-1H-indazol-3-yl)(methylsulfonyl)carbamoyl)oxy)ethyl)-N-(((phosphonooxy)methoxy)carbonyl)-L-alanine]", "values": [{"measurement": "pH 2 solubility", "setting": "[3]", "result": 1, "unit": "μM"}, {"measurement": "pH 7 solubility", "setting": "[4]", "result": 79, "unit": "μM"}, {"measurement": "solubility", "setting": "[1]; fassif", "result": 1630, "unit": "µg/mL"}]}, {"smiles": "CN(CCOC(=O)N(c1nn(CC(F)(F)F)c2c(-c3ccc(C#CC(C)(C)S(C)(=O)=O)nc3[C@H](Cc3cc(F)cc(F)c3)NC(=O)Cn3nc(C(F)(F)F)c4c3C(F)(F)[C@@H]3C[C@H]43)ccc(Cl)c12)S(C)(=O)=O)C(=O)OCOP(=O)(O)O", "note": "[Compound 133, (phosphonooxy)methyl (2-(((4-chloro-7-(2-((S)-1-(2-((3bS,4aR)-5,5-difluoro-3-(trifluoromethyl)-3b,4,4a,5-tetrahydro-1H-cyclopropa[3,4]cyclopenta[1,2-c]pyrazol-1-yl)acetamido)-2-(3,5-difluorophenyl)ethyl)-6-(3-methyl-3-(methylsulfonyl)but-1-yn-1-yl)pyridin-3-yl)-1-(2,2,2-trifluoroethyl)-1H-indazol-3-yl)(methylsulfonyl)carbamoyl)oxy)ethyl)(methyl)carbamate]", "values": [{"measurement": "pH 2 solubility", "setting": "[3]", "result": 1, "unit": "μM"}, {"measurement": "pH 7 solubility", "setting": "[4]", "result": 81, "unit": "μM"}, {"measurement": "solubility", "setting": "[1]; fassif", "result": 194, "unit": "µg/mL"}]}, {"smiles": "CC(C)(C#Cc1ccc(-c2ccc(Cl)c3c(N(C(=O)OCCN(CC(=O)O)C(=O)OCOP(=O)(O)O)S(C)(=O)=O)nn(CC(F)(F)F)c23)c([C@H](Cc2cc(F)cc(F)c2)NC(=O)Cn2nc(C(F)(F)F)c3c2C(F)(F)[C@@H]2C[C@H]32)n1)S(C)(=O)=O", "note": "[Compound 134]", "values": [{"measurement": "pH 2 solubility", "setting": "[3]", "result": 1, "unit": "μM"}, {"measurement": "pH 7 solubility", "setting": "[4]", "result": 100, "unit": "μM"}, {"measurement": "solubility", "setting": "[1]; fassif", "result": 2640, "unit": "µg/mL"}]}, {"smiles": "CC(C)(C#Cc1ccc(-c2ccc(Cl)c3c(N(C(=O)OCCN(CCC(=O)O)C(=O)OCOP(=O)(O)O)S(C)(=O)=O)nn(CC(F)(F)F)c23)c([C@H](Cc2cc(F)cc(F)c2)NC(=O)Cn2nc(C(F)(F)F)c3c2C(F)(F)[C@@H]2C[C@H]32)n1)S(C)(=O)=O", "note": "[Compound 135, 3-((2-(((4-chloro-7-(2-((S)-1-(2-((3bS,4aR)-5,5-difluoro-3-(trifluoromethyl)-3b,4,4a,5-tetrahydro-1H-cyclopropa[3,4]cyclopenta[1,2-c]pyrazol-1-yl)acetamido)-2-(3,5-difluorophenyl)ethyl)-6-(3-methyl-3-(methylsulfonyl)but-1-yn-1-yl)pyridin-3-yl)-1-(2,2,2-trifluoroethyl)-1H-indazol-3-yl)(methylsulfonyl)carbamoyl)oxy)ethyl)(((phosphonooxy)methoxy)carbonyl)amino)propa noic acid]", "values": [{"measurement": "pH 2 solubility", "setting": "[3]", "result": 1, "unit": "μM"}, {"measurement": "pH 7 solubility", "setting": "[4]", "result": 100, "unit": "μM"}, {"measurement": "solubility", "setting": "[1]; fassif", "result": 1290, "unit": "µg/mL"}]}, {"smiles": "CC(C)(C#Cc1ccc(-c2ccc(Cl)c3c(N(C(=O)O[C@H](CNC(=O)OCOP(=O)(O)O)CC(=O)O)S(C)(=O)=O)nn(CC(F)(F)F)c23)c([C@H](Cc2cc(F)cc(F)c2)NC(=O)Cn2nc(C(F)(F)F)c3c2C(F)(F)[C@@H]2C[C@H]32)n1)S(C)(=O)=O", "note": "[Compound 136, (S)-3-(((4-chloro-7-(2-((S)-1-(2-((3bS,4aR)-5,5-difluoro-3-(trifluoromethyl)-3b,4,4a,5-tetrahydro-1H-cyclopropa[3,4]cyclopenta[1,2-c]pyrazol-1-yl)acetamido)-2-(3,5-difluorophenyl)ethyl)-6-(3-methyl-3-(methylsulfonyl)but-1-yn-1-yl)pyridin-3-yl)-1-(2,2,2-trifluoroethyl)-1H-indazol-3-yl)(methylsulfonyl)carbamoyl)oxy)-4-((((phosphonooxy)methoxy)carbonyl)amino)butanoic acid]", "values": [{"measurement": "pH 2 solubility", "setting": "pH 2", "result": "3/57 μM"}, {"measurement": "pH 7 solubility", "setting": "pH 7.4", "result": "3/57 μM"}, {"measurement": "solubility", "setting": "[1]; fassif", "result": 1490, "unit": "µg/mL"}, {"measurement": "solubility", "setting": "[1]; fessif", "result": 2910, "unit": "µg/mL"}]}, {"smiles": "CC(C)(C#Cc1ccc(-c2ccc(Cl)c3c(N(C(=O)OCCNC(=O)OCOP(=O)(O)O)S(C)(=O)=O)nn(CC(F)(F)F)c23)c([C@H](Cc2cc(F)cc(F)c2)NC(=O)Cn2nc(C(F)(F)F)c3c2C(F)(F)[C@@H]2C[C@H]32)n1)S(C)(=O)=O", "note": "[Compound 137, 2-((((phosphonooxy)methoxy)carbonyl)amino)ethyl (4-chloro-7-(2-((S)-1-(2-((3bS,4aR)-5,5-difluoro-3-(trifluoromethyl)-3b,4,4a,5-tetrahydro-1H-cyclopropa[3,4]cyclopenta[1,2-c]pyrazol-1-yl)acetamido)-2-(3,5-difluorophenyl)ethyl)-6-(3-methyl-3-(methylsulfonyl)but-1-yn-1-yl)pyridin-3-yl)-1-(2,2,2-trifluoroethyl)-1H-indazol-3-yl)(methylsulfonyl)carbamate]", "values": [{"measurement": "pH 2 solubility", "setting": "[3]", "result": 1, "unit": "μM"}, {"measurement": "pH 7 solubility", "setting": "[4]", "result": 85, "unit": "μM"}, {"measurement": "solubility", "setting": "[1]; fassif", "result": 950, "unit": "µg/mL"}]}, {"smiles": "CC(C)(C#Cc1ccc(-c2ccc(Cl)c3c(NS(C)(=O)=O)nn(CC(F)(F)F)c23)c([C@H](Cc2cc(F)cc(F)c2)NC(=O)Cn2nc(C(F)(F)F)c3c2C(F)(F)[C@@H]2C[C@H]32)n1)S(C)(=O)=O", "note": "[Intermediate 5, N—((S)-1-(3-(4-chloro-3-(methylsulfonamido)-1-(2,2,2-trifluoroethyl)-1H-indazol-7-yl)-6-(3-methyl-3-(methylsulfonyl)but-1-yn-1-yl)pyridin-2-yl)-2-(3,5-difluorophenyl)ethyl)-2-((3bS,4aR)-5,5-difluoro-3-(trifluoromethyl)-3b,4,4a,5-tetrahydro-1H-cyclopropa[3,4]cyclopenta[1,2-c]pyrazol-1-yl)acetamide, reference compound]", "values": [{"measurement": "pH 2 solubility", "setting": "[3]", "result": 0.11, "unit": "μM"}, {"measurement": "pH 7 solubility", "setting": "[4]", "result": 0.32, "unit": "μM"}, {"measurement": "Dog F % (solution)", "setting": "[2]", "result": 16, "unit": "%"}]}]}
